Experimental data from patent EP0381514B1, “Use of N-methyl-sphingosine as inhibitor of cell growth” (The Biomembrane Institute, priority 1989, dated 1990).

Key:
C-kinase = test: Inhibition of C-kinase activity (liposome method, histone III-S, 32P-ATP); assay type: biochemical, human; set-up: C-kinase ³²P incorporation: unit: cpm; details: for inhibitory activity of C-kinase: conclusion in words from Tables I, II and Figs. 2, 3; for C-kinase ³²P incorporation %: relative to phosphatidyl-serine, diolein, Ca⁺² control = 100; for Inhibition of C-kinase (concentration in »M yielding 50% inhibition): C-kinase from A431 cells
Experimental: A431 cells were grown in a mixture of DME and Ham's F-12 medium (weight ratio 1:1) supplemented with 10% fetal calf serum (FCS). […] Briefly, cells were scraped by rubber policeman, suspended in 50 ml of 20 mM Tris-HCL (pH 7.5), 2 mM EDTA, 0.5 mM EGTA, 0.15 U/ml aprotinine, and 0.25 M sucrose, and homogenized by 50 strokes at 4°C in a Dounce homogenizer (40-ml size, Wheaton). The homogenized cells were ultracentrifuged at 100,000 xg for 60 min. The supernatant was purified on a DE52 column equilibrated with 20 mM Tris-HCL (pH 7.5), 2 mM EDTA, and 0.5 mM EGTA (buffer B), and washed well with this buffer. The C-kinase activity was eluted with buffer B containing 0.1 M NaCl.
The lipid mixture was sonicated in 30 »l of 20 mM Tris-HCl (pH 7.5) for 30 min. The liposomes in the tube were supplemented with the reaction mixture, consisting of 25 mM Tris-HCl (pH 7.5), 10 mM MgCl₂, 400 »M EDTA, 50 »M EGTA, 500 »M CaCl₂, 200 »g/ml Histone III-S, and 20 »M gamma-[³²P]-ATP (2 x 10⁶ cpm); final volume was 90 »l.
The reaction was initiated by addition of 10 »l of C-kinase fraction (containing 1-2 »g protein) prepared as described above, and the reaction mixture was incubated for 10 min at 30°C. […] The value without phosphatidylserine, 1,2-diolein, or Ca²⁺ were used as a control.

[1] = tested on: human colonic cancer cells HRT-18; test: Inhibition of growth of human colonic cancer cells HRT-18 in vitro (cell count after 3 days); assay type: cell-based; details: HRT-18, 3 days
Experimental: HRT-18 cells were seeded in plates in Dulbecco's modified Eagle's medium supplemented with 10% fetal calf serum (5 x 10⁵ cells per each 3 cm plate). After the cells were cultured overnight, the medium was replaced with the same media containing various concentrations of N,N-dimethyl- or N-monomethyl sphingosine, N-acetylsphingosine, and ceramide as shown in Fig. 4. Cultures were continued for 3 days, and cell numbers were counted. The percent inhibition of cell numbers in the presence of reagents was calculated as percent of control dishes, which contained no sphingosine derivatives.

mouse splenocytes [2] = test: Inhibition of IL-2-dependent mitogenesis, mouse splenocytes; assay type: cell-based
Experimental: The effect of N,N-dimethyl-sphingosine (prepared from naturally occurring sphingolipid as described in Example 3) on IL-2-dependent mitogenesis was tested using human peripheral blood lymphocytes and mouse splenocytes.
Inhibition of IL-2-induced mitogenesis of mouse splenocytes was determined in an analogous manner.

HRT18 tumor cells = test: Inhibition of in vivo growth of HRT18 tumor cells in nude mice; details: 44 »g/200 »l in PBS injected at day 7, 11 and 15; tumor weight estimated by size; significant (p>0.005 as printed)
Experimental: The effect of N,N-dimethyl-sphingosine (prepared from naturally occurring sphingolipid as described in Example 3) on in vivo growth of HRT18 tumor cells in nude mice was determined as follows.
1 x 10⁶ HRT-18 human colonic cancer cells were inoculated into nude mice at day 0 by known methods. N,N-dimethylsphingosine emulsified in phosphate buffered saline (PBS) (44 »g/200 »l) was injected at day 7, 11, and 15. Tumor growth weight in mg was estimated by the size of the tumors. Each group consisted of ten animals.

[3] = tested on: human peripheral blood lymphocytes; test: Inhibition of concanavalin-A-induced mitogenesis (3H-thymidine uptake), human lymphocytes; assay type: cell-based; details: 2 »g con-A/ml
Experimental: Peripheral blood lymphocytes isolated from human blood by known methods were cultured in RPMI containing 2 »g con-A/ml for 18 hours in multiple wells. Subsequently, various concentrations of N,N-dimethylsphingosine, sphingosine, or N-acetylsphingosine as shown in Fig. 6 were added to the culture media and cultured continuously for 5 hours, followed by addition of ³H-thymidine. The thymidine uptake over a 5-hour period was determined. The % inhibition of mitogenesis was calculated based on control value (without addition of any inhibitor).

[4] = tested on: human peripheral blood lymphocytes; test: Inhibition of IL-2-dependent mitogenesis (3H-thymidine incorporation), human lymphocytes; assay type: cell-based; details: 0.5 U/ml IL-2
Experimental: Human peripheral blood lymphocytes isolated from human blood by known methods were cultured in RPMI containing 0.5 U/ml IL-2. […] Mitogenesis was measured by incorporation of ³H-thymidine into DNA over a 5-hour period. Percent inhibition as compared to the control value (without addition of any inhibitor) was determined.

mouse splenocytes [5] = test: Inhibition of concanavalin-A-induced mitogenesis, mouse splenocytes; assay type: cell-based
Experimental: The effect of N,N-dimethyl-sphingosine (prepared from naturally occurring sphingolipid as described in Example 3) on conconavalin-A (con-A) -induced mitogenesis was tested using human peripheral blood lymphocytes and mouse splenocytes.
Inhibition of con-A-induced mitogenisis of mouse splenocytes was determined in an analogous manner.

For CCCCCCCCCCCCC/C=C/[C@@H](O)[C@@H](N)CO [D-erythro-sphingenine, D(+)-erythro-sphingenine, reference compound], the “inhibitory activity of C-kinase” value (C-kinase) was “weak and similar inhibitory activity”, the “C-kinase ³²P incorporation” value (C-kinase; lipid added at 50 »M) was 18754 ± 2184 and the “C-kinase ³²P incorporation %” value (C-kinase; lipid added at 50 »M, 50 µM) was 47 ± 6%.
For CCCCCCCCCCCCC/C=C/[C@H](O)[C@H](N)CO [L-erythro-sphingenine, L(-)-erythro-sphingenine, reference compound], the “inhibitory activity of C-kinase” value (C-kinase) was “weak and similar inhibitory activity”, the “C-kinase ³²P incorporation” value (C-kinase; lipid added at 50 »M) was 18549 ± 2760 and the “C-kinase ³²P incorporation %” value (C-kinase; lipid added at 50 »M, 50 µM) was 47 ± 7%.
CCCCCCCCCCCCC/C=C/[C@@H](O)[C@H](CO)N(C)C [N,N-dimethyl-D-erythro-sphingenine] was tested, and the “inhibitory activity of C-kinase” value (C-kinase) was “strikingly strong inhibitory activity”, the “C-kinase ³²P incorporation” value (C-kinase; lipid added at 2 »M) was 34206 ± 1220 and the “C-kinase ³²P incorporation %” value (C-kinase; lipid added at 2 »M, 2 µM) was 86 ± 3%. For the same molecule, the “C-kinase ³²P incorporation” value (C-kinase; lipid added at 10 »M) was 20563 ± 1173, the “C-kinase ³²P incorporation %” value (C-kinase; lipid added at 10 »M, 10 µM) was 52 ± 3% and the “C-kinase ³²P incorporation” value (C-kinase; lipid added at 25 »M) was 15214 ± 377. The “C-kinase ³²P incorporation %” value (C-kinase; lipid added at 25 »M, 25 µM) was 38 ± 1%, the “C-kinase ³²P incorporation” value (C-kinase; lipid added at 50 »M) was 5254 and the “C-kinase ³²P incorporation %” value (C-kinase; lipid added at 50 »M, 50 µM) was 13%.
With CCCCCCCCCCCCC/C=C/[C@H](O)[C@@H](CO)N(C)C [N,N-dimethyl-L-erythro-sphingenine] the “inhibitory activity of C-kinase” value (C-kinase) was “weaker inhibitory activity”, the “C-kinase ³²P incorporation” value (C-kinase; lipid added at 2 »M) was 37354 ± 1420 and the “C-kinase ³²P incorporation %” value (C-kinase; lipid added at 2 »M, 2 µM) was 95 ± 4%. The “C-kinase ³²P incorporation” value (C-kinase; lipid added at 10 »M) was 25583 ± 1931, the “C-kinase ³²P incorporation %” value (C-kinase; lipid added at 10 »M, 10 µM) was 65 ± 5% and the “C-kinase ³²P incorporation” value (C-kinase; lipid added at 25 »M) was 21743 ± 577. For the same molecule, the “C-kinase ³²P incorporation %” value (C-kinase; lipid added at 25 »M, 25 µM) was 55 ± 2%, the “C-kinase ³²P incorporation” value (C-kinase; lipid added at 50 »M) was 11020 and the “C-kinase ³²P incorporation %” value (C-kinase; lipid added at 50 »M, 50 µM) was 28%.
With CCCCCCCCCCCCC/C=C/[C@H](O)[C@H](CO)N(C)C [N,N-dimethyl-L-threo-sphingosine] the “inhibition of cell growth” value ([1]; at 12.5 »M concentration) was “significantly inhibited”.
CCCCCCCCCCCCC/C=C/[C@@H](O)[C@H](CO)N(C)C [N,N-dimethyl-sphingosine] was tested, and the “inhibition of cell growth” value ([1]; at 12.5 »M concentration) was “significantly inhibited”, the “inhibitory effect on IL-2-dependent mitogenesis” value (mouse splenocytes [2]) was “strong inhibitory effect” and the inhibition of growth (HRT18 tumor cells) was “more than 50%”. The “inhibition of con-A-dependent growth stimulation” value [3] was “greatly inhibited”, the “inhibition of IL-2-dependent mitogenesis” value [4] was “invariably inhibited” and the “inhibitory effect on concanavalin-A-induced mitogenesis” value (mouse splenocytes [5]) was “strong inhibitory effect”.
With CCCCCCCCCCCCC/C=C/[C@@H](O)[C@H](CO)NC(C)=O [N-acetylsphingosine, reference compound] the “Inhibition of C-kinase (concentration in »M yielding 50% inhibition)” value (C-kinase) was “no inhibition”, the “inhibition of cell growth” value ([1]; at 150 »M concentration) was “minimum inhibition” and the “inhibition of IL-2-dependent mitogenesis” value [4] was “less so”.
For CCCCCCCCCCCCC/C=C/[C@@H](O)[C@@H](N)CO [sphingosine], the “inhibition of IL-2-dependent mitogenesis” value [4] was “less so”.
With Ceramide [reference compound] the “Inhibition of C-kinase (concentration in »M yielding 50% inhibition)” value (C-kinase) was “no inhibition” and the “inhibition of cell growth” value ([1]; at 150 »M concentration) was “minimum inhibition”.
“Lactosylsphingosine [reference compound]” was tested, and the “Inhibition of C-kinase (concentration in »M yielding 50% inhibition)” value (C-kinase) was “no inhibition”.
N-monomethyl-sphingosine was tested, and the “inhibition of cell growth” value ([1]; at 12.5 »M concentration) was “significantly inhibited”.
